Results from the kinase profiling compilation of Christmann-Franck et al. (2016).
Values joined by “and” are separate entries in the source; they are usually repeats but may differ in a detail not shown here. Identical values can stand only once.

Tests used:
Experiment in all cases: KINOMEscan competition binding
Settings in all cases: compound 10.0 µM
[1] = biological target: PRKAA1 (human) (UniProt Q13131)
[2] = biological target: AKT1 (human) (UniProt P31749)
[3] = biological target: MAPK13 (human) (UniProt O15264)
MAPK13 (human), sequence (O15264 whole entry, looked up): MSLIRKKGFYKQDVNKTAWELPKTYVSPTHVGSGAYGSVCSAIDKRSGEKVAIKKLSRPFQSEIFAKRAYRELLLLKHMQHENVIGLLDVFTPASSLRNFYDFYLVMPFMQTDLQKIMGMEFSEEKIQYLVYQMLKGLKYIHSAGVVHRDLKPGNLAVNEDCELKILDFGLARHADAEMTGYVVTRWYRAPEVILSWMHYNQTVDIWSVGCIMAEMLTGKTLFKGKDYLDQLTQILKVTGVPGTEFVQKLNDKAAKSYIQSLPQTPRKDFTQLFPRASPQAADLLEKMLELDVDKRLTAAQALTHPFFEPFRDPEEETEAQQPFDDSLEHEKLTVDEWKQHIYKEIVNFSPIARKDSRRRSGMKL

[4] = biological target: CHEK1 (human) (UniProt O14757)
[5] = biological target: CSNK1A1L (human) (UniProt Q8N752)
[6] = biological target: FGFR1 (human) (UniProt P11362)
[7] = biological target: ACVR1B (human) (UniProt P36896)
[8] = biological target: STK36 (human) (UniProt Q9NRP7)
[9] = tested on: EGFR (human), P00533 [G719C]
[10] = biological target: MET (human) (UniProt P08581)
MET (human), sequence (P08581 whole entry, looked up): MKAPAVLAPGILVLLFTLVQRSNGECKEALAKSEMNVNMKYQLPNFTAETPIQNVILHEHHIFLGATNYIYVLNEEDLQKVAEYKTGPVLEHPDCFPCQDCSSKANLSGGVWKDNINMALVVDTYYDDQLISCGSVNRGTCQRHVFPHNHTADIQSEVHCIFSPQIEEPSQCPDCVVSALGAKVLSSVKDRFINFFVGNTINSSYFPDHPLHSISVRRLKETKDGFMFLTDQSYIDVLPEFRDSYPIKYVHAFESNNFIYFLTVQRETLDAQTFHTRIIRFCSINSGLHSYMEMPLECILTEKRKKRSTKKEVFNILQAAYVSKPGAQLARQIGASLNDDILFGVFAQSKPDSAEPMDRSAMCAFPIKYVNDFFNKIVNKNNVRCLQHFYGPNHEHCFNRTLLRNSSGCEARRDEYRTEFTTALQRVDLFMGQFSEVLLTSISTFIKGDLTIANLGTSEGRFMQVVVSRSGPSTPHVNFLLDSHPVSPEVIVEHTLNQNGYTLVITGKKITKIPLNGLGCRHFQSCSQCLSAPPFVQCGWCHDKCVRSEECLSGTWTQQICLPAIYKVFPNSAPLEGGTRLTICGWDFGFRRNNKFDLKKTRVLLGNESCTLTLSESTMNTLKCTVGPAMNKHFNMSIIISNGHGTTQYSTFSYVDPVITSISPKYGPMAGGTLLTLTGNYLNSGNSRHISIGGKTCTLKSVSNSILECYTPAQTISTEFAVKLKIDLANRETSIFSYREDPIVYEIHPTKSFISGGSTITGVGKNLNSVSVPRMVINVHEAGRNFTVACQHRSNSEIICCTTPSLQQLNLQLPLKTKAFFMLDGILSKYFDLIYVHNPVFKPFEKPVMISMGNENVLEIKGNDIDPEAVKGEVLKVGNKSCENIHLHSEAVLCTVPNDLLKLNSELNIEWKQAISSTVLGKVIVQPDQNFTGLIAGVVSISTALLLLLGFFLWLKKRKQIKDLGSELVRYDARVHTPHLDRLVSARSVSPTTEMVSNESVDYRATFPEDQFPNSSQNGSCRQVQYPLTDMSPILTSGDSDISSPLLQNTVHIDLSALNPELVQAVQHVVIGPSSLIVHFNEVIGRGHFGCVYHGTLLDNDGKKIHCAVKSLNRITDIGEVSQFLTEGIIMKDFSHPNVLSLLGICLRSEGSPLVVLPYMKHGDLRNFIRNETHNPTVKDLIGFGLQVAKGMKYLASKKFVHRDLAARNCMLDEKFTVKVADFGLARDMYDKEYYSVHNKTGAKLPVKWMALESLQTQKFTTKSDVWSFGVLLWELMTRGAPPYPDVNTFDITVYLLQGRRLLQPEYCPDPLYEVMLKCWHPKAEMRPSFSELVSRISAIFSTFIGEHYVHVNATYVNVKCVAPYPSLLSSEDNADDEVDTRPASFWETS

[11] = biological target: PKN2 (human) (UniProt Q16513)
[12] = biological target: CLK3 (human) (UniProt P49761)
[13] = biological target: CHEK2 (human) (UniProt O96017)
[14] = biological target: ERBB4 (human) (UniProt Q15303)
[15] = biological target: MYO3B (human) (UniProt Q8WXR4)
[16] = biological target: TESK1 (human) (UniProt Q15569)
[17] = biological target: CDK11B (human) (UniProt P21127)
[18] = biological target: PAK3 (human) (UniProt O75914)
PAK3 (human), sequence (O75914 whole entry, looked up): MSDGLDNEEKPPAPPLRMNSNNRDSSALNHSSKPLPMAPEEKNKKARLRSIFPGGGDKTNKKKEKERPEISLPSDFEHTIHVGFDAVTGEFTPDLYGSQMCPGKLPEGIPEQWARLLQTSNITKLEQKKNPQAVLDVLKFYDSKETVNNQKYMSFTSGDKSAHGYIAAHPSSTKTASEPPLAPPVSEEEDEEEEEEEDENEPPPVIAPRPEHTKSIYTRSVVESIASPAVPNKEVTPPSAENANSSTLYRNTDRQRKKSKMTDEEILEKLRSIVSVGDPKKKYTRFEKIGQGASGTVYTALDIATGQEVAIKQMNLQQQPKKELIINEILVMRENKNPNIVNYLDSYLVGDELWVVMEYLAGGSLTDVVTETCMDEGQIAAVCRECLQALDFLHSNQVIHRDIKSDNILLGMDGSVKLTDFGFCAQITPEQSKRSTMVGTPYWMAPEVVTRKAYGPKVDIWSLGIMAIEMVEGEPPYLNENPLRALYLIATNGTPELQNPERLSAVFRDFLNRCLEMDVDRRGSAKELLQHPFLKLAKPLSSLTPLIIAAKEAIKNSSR

[19] = biological target: EPHA8 (human) (UniProt P29322)
[20] = biological target: RPS6KA4 KD2 (human) (UniProt O75676)
[21] = biological target: DMPK (human) (UniProt Q09013)
[22] = biological target: FLT3 (human) (UniProt P36888)
[23] = biological target: CDC42BPA (human) (UniProt Q5VT25)
[24] = biological target: RIOK3 (human) (UniProt O14730)
[25] = biological target: IRAK4 (human) (UniProt Q9NWZ3)
[26] = biological target: EPHB1 (human) (UniProt P54762)
EPHB1 (human), sequence (P54762 whole entry, looked up): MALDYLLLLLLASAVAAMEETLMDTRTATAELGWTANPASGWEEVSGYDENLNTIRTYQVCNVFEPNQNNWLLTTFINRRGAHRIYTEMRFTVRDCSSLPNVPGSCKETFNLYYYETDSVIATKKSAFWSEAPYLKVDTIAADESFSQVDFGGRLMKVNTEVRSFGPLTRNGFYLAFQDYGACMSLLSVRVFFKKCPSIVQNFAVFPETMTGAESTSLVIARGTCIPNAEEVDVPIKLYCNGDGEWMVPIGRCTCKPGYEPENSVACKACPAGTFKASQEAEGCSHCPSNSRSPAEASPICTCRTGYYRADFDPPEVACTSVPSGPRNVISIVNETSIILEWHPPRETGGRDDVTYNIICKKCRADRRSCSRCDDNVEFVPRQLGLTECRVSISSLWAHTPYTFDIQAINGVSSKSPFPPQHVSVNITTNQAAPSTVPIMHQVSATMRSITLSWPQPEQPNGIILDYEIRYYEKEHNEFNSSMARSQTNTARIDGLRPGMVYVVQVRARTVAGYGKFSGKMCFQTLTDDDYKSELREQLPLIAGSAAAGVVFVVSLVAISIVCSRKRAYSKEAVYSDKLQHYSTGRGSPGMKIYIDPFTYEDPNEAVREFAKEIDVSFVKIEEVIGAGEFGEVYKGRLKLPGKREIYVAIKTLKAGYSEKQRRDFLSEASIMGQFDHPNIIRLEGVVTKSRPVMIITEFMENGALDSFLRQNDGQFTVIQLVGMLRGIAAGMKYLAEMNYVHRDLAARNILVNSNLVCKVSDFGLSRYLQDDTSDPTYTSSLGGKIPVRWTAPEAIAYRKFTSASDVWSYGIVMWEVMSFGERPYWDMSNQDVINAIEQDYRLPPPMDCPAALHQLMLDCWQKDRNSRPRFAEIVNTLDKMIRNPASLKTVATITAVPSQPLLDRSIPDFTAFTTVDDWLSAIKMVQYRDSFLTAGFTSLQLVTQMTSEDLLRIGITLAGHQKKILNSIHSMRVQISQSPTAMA

[27] = biological target: MARK1 (human) (UniProt Q9P0L2)
MARK1 (human), sequence (Q9P0L2 whole entry, looked up): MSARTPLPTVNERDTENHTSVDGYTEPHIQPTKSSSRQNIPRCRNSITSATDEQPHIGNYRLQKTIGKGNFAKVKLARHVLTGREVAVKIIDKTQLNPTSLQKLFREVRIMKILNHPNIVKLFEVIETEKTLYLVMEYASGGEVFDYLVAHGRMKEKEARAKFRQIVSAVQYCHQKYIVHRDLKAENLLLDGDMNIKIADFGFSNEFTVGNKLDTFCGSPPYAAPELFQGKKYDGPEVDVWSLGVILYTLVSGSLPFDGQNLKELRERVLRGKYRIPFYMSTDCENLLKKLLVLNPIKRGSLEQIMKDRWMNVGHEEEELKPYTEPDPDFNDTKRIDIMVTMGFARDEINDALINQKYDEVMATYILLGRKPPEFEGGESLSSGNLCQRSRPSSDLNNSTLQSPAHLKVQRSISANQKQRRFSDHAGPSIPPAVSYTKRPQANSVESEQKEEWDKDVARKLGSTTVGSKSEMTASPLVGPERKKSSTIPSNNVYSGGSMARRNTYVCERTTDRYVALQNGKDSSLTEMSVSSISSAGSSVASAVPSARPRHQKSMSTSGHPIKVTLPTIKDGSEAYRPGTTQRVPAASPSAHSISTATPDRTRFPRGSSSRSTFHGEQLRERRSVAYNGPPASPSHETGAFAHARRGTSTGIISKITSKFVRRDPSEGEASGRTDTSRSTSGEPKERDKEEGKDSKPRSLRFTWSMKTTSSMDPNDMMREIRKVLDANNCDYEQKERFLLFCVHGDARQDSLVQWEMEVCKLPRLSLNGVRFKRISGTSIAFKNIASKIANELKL

[28] = biological target: HIPK1 (human) (UniProt Q86Z02)
[29] = biological target: MAP3K6 (human) (UniProt O95382)
[30] = biological target: MAP3K5 (human) (UniProt Q99683)
[31] = biological target: TAOK1 (human) (UniProt Q7L7X3)
[32] = biological target: RIPK2 (human) (UniProt O43353)
[33] = biological target: AAK1 (human) (UniProt Q2M2I8)
[34] = biological target: FRK (human) (UniProt P42685)
[35] = biological target: TTK (human) (UniProt P33981)
TTK (human), sequence (P33981 whole entry, looked up): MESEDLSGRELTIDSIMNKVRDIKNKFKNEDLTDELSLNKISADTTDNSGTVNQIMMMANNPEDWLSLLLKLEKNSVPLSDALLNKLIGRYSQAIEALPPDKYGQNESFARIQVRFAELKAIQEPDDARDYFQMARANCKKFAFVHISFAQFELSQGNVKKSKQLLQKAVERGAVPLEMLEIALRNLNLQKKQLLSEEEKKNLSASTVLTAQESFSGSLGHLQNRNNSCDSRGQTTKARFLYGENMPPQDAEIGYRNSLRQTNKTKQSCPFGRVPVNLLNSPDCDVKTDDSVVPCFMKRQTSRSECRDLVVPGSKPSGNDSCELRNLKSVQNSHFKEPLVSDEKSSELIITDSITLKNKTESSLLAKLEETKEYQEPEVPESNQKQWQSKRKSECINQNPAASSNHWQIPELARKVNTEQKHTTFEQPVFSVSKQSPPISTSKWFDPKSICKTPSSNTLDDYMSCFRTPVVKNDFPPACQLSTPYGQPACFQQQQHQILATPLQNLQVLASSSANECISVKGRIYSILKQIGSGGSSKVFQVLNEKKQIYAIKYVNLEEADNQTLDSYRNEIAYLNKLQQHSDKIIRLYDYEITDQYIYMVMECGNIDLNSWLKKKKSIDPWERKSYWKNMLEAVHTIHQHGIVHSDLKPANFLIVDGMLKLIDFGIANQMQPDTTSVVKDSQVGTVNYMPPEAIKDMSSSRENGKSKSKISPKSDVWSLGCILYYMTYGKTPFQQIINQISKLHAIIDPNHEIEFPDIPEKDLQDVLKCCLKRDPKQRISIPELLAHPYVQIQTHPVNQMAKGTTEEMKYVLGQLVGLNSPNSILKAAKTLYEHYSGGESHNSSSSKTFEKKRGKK

[36] = biological target: STK10 (human) (UniProt O94804)
[37] = biological target: CDK16 (human) (UniProt Q00536)
[38] = biological target: PIM2 (human) (UniProt Q9P1W9)
[39] = biological target: PRKACA (human) (UniProt P17612)
[40] = biological target: MARK4 (human) (UniProt Q96L34)

Row | Structure (SMILES) | kinase still bound, per cent of control [1] | kinase still bound, per cent of control [2] | kinase still bound, per cent of control [3] | kinase still bound, per cent of control [4] | kinase still bound, per cent of control [5] | kinase still bound, per cent of control [6] | kinase still bound, per cent of control [7] | kinase still bound, per cent of control [8] | kinase still bound, per cent of control [9] | kinase still bound, per cent of control [10] | kinase still bound, per cent of control [11] | kinase still bound, per cent of control [12] | kinase still bound, per cent of control [13] | kinase still bound, per cent of control [14] | kinase still bound, per cent of control [15] | kinase still bound, per cent of control [16] | kinase still bound, per cent of control [17] | kinase still bound, per cent of control [18] | kinase still bound, per cent of control [19] | kinase still bound, per cent of control [20] | other results
1 | CCN1CCN(Cc2ccc(NC(=O)c3ccc(C)c(/C=C/c4cnc5[nH]ccc5c4OC)c3)cc2C(F)(F)F)CC1 | 20% | 100% | 22% | 28% | 100% | 0.1% | 98% | 0.3% | 0.05% | 40% | 26% | 100% | 66% | 0.1% | 40% | 15% | 8.5% | 6% | 0.15% | 30% | kinase still bound, per cent of control [21]: 57%; kinase still bound, per cent of control [22]: 0.95%; kinase still bound, per cent of control [23]: 15%; kinase still bound, per cent of control [24]: 0.35%; kinase still bound, per cent of control [25]: 48%; kinase still bound, per cent of control [26]: 0.45%; kinase still bound, per cent of control [27]: 94%; kinase still bound, per cent of control [28]: 74%; kinase still bound, per cent of control [29]: 64%; kinase still bound, per cent of control [30]: 35%; kinase still bound, per cent of control [31]: 0.75%; kinase still bound, per cent of control [32]: 1.8%; kinase still bound, per cent of control [33]: 26%; kinase still bound, per cent of control [34]: 0.6%; kinase still bound, per cent of control [35]: 6.8%; kinase still bound, per cent of control [36]: 0%; kinase still bound, per cent of control [37]: 98%; kinase still bound, per cent of control [38]: 100%; kinase still bound, per cent of control [39]: 100%; kinase still bound, per cent of control [40]: 100%
2 | COc1cc2ncnc(Nc3cccc(Cl)c3)c2cc1OC | 100% | 100% | 100% | 100% | 72% | 87% | 100% | 54% | 0.1% | 62% | 59% | 100% | 6.7% | 3.5% | 100% | 100% | 86% | 25% | 38% | 91% | kinase still bound, per cent of control [21]: 79%; kinase still bound, per cent of control [22]: 42% and 58%; kinase still bound, per cent of control [23]: 77%; kinase still bound, per cent of control [24]: 78%; kinase still bound, per cent of control [25]: 8.9%; kinase still bound, per cent of control [26]: 67%; kinase still bound, per cent of control [27]: 100%; kinase still bound, per cent of control [28]: 48%; kinase still bound, per cent of control [29]: 43%; kinase still bound, per cent of control [30]: 74%; kinase still bound, per cent of control [31]: 38%; kinase still bound, per cent of control [32]: 19%; kinase still bound, per cent of control [33]: 18%; kinase still bound, per cent of control [34]: 29%; kinase still bound, per cent of control [35]: 61%; kinase still bound, per cent of control [36]: 1.5%; kinase still bound, per cent of control [37]: 90%; kinase still bound, per cent of control [38]: 74%; kinase still bound, per cent of control [39]: 94%; kinase still bound, per cent of control [40]: 100%
3 | CNC(=O)Nc1ccc(-c2nc(N3CC4CCC(C3)O4)c3cnn(C4CCC5(CC4)OCCO5)c3n2)cc1 | 94% | 81% | 16% | 100% | 100% | 100% | 100% | 96% | 80% | 93% | 83% | 31% | 84% | 100% | 91% | 80% | 100% | 99% | 81% | 100% | kinase still bound, per cent of control [21]: 83%; kinase still bound, per cent of control [22]: 75% and 77%; kinase still bound, per cent of control [23]: 100%; kinase still bound, per cent of control [24]: 100%; kinase still bound, per cent of control [25]: 100%; kinase still bound, per cent of control [26]: 90%; kinase still bound, per cent of control [27]: 100%; kinase still bound, per cent of control [28]: 100%; kinase still bound, per cent of control [29]: 80%; kinase still bound, per cent of control [30]: 85%; kinase still bound, per cent of control [31]: 100%; kinase still bound, per cent of control [32]: 71%; kinase still bound, per cent of control [33]: 100%; kinase still bound, per cent of control [34]: 68%; kinase still bound, per cent of control [35]: 100%; kinase still bound, per cent of control [36]: 99%; kinase still bound, per cent of control [37]: 100%; kinase still bound, per cent of control [38]: 74%; kinase still bound, per cent of control [39]: 75%; kinase still bound, per cent of control [40]: 94%
